Assay results as given in patent publication US20260042764A1, “COMPOSITIONS AND METHODS FOR INHIBITION OF KRAS” (TheRas, Inc., priority 2022, published 2026).

Legend:
[1] = molecular target: T1, Avi-KRAS G12D (2-169) GTP/RAF1 RBD-3xFLAG (51-131) (Homo sapiens, UniProt P01116, G12D); test: Raf1-KRAS G12D-GTP disruption HTRF assay (Biological Example 3); format: binding; conditions: KRAS G12D, GTP-loaded
T1 construct: Avi-KRAS G12D (2-169)
How it was run: (§1)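 50 nM Avi-KRAS (2-169) GTP/RAF1 RBD complex; 75 nM RBD-Avi; pH 7.5 Tris buffer, 10% DMSO; cpd 30 μM top, 3x, 10 pts; 1 h RT, 700 rpm; HTRF, % of DMSO.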

GP2d cells (KRAS G12D) = test: Cell-based pERK HTRF assay in GP2d cell (Biological Example 2); conditions: GP2d, GP2d (KRAS G12D) cells
How it was run: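 Treatment with test compounds lasted one hour in DMEM containing 10% FBS, with DMSO held at 0.25%. Dilution series: 9 points, half-log spacing, highest 1 μM or 100 nM. Lysates were incubated 4–24 h at room temperature with antibody mix, then HTRF was read at 320 nm excitation.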

[2] = molecular target: T2, Avi-KRAS G12C (2-169) GTP/RAF1 RBD-3xFLAG (51-131) (Homo sapiens, UniProt P01116, G12C); test: Raf1-KRAS G12C-GTP disruption HTRF assay (Biological Example 3); format: binding; conditions: KRAS G12C, GTP-loaded
T2 construct: Avi-KRAS G12C (2-169)
How it was run: as §1

[3] = molecular target: T3, Avi-KRAS WT (2-169) GTP/RAF1 RBD-3xFLAG (51-131) (Homo sapiens, UniProt P01116); test: Raf1-KRAS WT-GTP disruption HTRF assay (Biological Example 3); format: binding; conditions: KRAS WT, GTP-loaded
T3 construct: Avi-KRAS WT (2-169)
How it was run: as §1

[4] = molecular target: T4, Avi-KRAS G12V (2-169) GTP/RAF1 RBD-3xFLAG (51-131) (Homo sapiens, UniProt P01116, G12V); test: Raf1-KRAS G12V-GTP disruption HTRF assay (Biological Example 3); format: binding; conditions: KRAS G12V, GTP-loaded
T4 construct: Avi-KRAS G12V (2-169)
How it was run: as §1

SW620 cells (KRAS G12V) = test: Cell-based pERK HTRF assay in SW620 cell (Biological Example 4); conditions: Homo sapiens, SW-620, SW620 (KRAS G12V) cells
How it was run: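 This assay measures inhibition of ERK phosphorylation downstream of KRAS G12V in intact SW620 cells. Compounds are applied for 4 h over nine half-log concentrations starting at 1 μM, and pERK is quantified by HTRF.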

T4 sequence (P01116 2-169 isoform P01116-2 G12V): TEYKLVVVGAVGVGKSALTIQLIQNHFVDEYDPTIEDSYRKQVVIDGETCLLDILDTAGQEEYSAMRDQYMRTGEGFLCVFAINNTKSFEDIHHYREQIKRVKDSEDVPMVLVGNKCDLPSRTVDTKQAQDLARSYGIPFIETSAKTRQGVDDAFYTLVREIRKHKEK
T2 sequence (P01116 2-169 isoform P01116-2 G12C): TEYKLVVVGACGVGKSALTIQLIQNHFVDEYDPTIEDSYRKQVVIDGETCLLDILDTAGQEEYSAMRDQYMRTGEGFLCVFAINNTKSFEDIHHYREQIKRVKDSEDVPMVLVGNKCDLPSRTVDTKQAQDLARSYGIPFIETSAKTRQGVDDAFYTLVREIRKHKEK
T3 sequence (P01116 2-169 isoform P01116-2): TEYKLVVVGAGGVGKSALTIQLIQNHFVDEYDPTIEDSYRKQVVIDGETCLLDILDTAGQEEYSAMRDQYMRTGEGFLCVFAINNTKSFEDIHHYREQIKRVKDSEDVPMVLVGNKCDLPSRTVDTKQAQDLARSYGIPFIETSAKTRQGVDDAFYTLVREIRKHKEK
T1 sequence (P01116 2-169 isoform P01116-2 G12D): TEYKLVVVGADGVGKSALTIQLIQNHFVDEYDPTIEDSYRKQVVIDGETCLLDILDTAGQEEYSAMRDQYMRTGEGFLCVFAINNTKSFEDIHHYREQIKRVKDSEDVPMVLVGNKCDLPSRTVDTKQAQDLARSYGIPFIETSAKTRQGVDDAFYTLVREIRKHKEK

| SMILES | IC50 [1] | IC50 (GP2d cells (KRAS G12D)) | IC50 [2] | IC50 [3] | IC50 [4] | IC50 (SW620 cells (KRAS G12V)) |
| --- | --- | --- | --- | --- | --- | --- |
| CCN(c1nc(OC[C@@]23CCCN2C[C@H](F)C3)nc2c(F)c(-c3ccc(F)c4sc(N)c(C#N)c34)c(C(F)(F)F)cc12)[C@H]1C[C@H]2CCCC(=O)N2C1 (atropisomer, axis not shown; (aR)) [Compound 662, 2-amino-4-((S)-4-(ethyl((2S,8aR)-5-oxooctahydroindolizin-2-yl)amino)-8-fluoro-2-(((2R,7aS)-2-fluorotetrahydro-1H-pyrrolizin-7a(5H)-yl)methoxy)-6-(trifluoromethyl)quinazolin-7-yl)-7-fluorobenzo[b]thiophene-3-carbonitrile] | ≤ 0.1 µM | < 0.1 µM | ≤ 0.1 µM | 0.1 to 1 µM | ≤ 0.1 µM | < 0.1 µM |
| CCN(c1nc(OC[C@@]23CCCN2C[C@H](F)C3)nc2c(F)c(-c3ccc(F)c4sc(N)c(C#N)c34)c(C(F)(F)F)cc12)[C@H]1C[C@H](C)N(C(=O)[C@@H]2C[C@H]2F)C1 (atropisomer, axis not shown; (aS)) [Compound 893, 2-amino-4-((S)-4-(ethyl((3S,5S)-1-((1S,2R)-2-fluorocyclopropane-1-carbonyl)-5-methylpyrrolidin-3-yl)amino)-8-fluoro-2-(((2R,7aS)-2-fluorotetrahydro-1H-pyrrolizin-7a (5H)-yl)methoxy)-6-(trifluoromethyl)quinazolin-7-yl)-7-fluorobenzo[b]thiophene-3-carbonitrile] | 0.1 to 1 µM | < 0.1 µM | 0.1 to 1 µM | 0.1 to 1 µM | ≤ 0.1 µM | < 0.1 µM |
| C[C@H](c1cccnc1)N(C)c1nc(OC[C@@]23CCCN2C[C@H](F)C3)nc2c(F)c(-c3ccc(F)c4sc(N)c(C#N)c34)c(C(F)(F)F)cc12 (atropisomer, axis not shown; (aS)) [Compound 904, 2-amino-7-fluoro-4-((S)-8-fluoro-2-(((2R,7aS)-2-fluorotetrahydro-1H-pyrrolizin-7a(5H)-yl)methoxy)-4-(methyl((R)-1-(pyridin-3-yl)ethyl)amino)-6-(trifluoromethyl)quinazolin-7-yl)benzo[b]thiophene-3-carbonitrile] | 1 to 10 µM | < 0.1 µM | 1 to 10 µM | 1 to 10 µM | 1 to 10 µM | < 0.1 µM |
| CCN(c1nc(OC[C@@]23CCCN2C[C@H](F)C3)nc2c(F)c(-c3ccc(F)c4sc(N)c(C#N)c34)c(C(F)(F)F)cc12)[C@H]1CCN(C(=O)c2cncs2)C1 (atropisomer, axis not shown; (aS)) [Compound 906, 2-amino-4-((S)-4-(ethyl((S)-1-(thiazole-5-carbonyl)pyrrolidin-3-yl)amino)-8-fluoro-2-(((2R,7aS)-2-fluorotetrahydro-1H-pyrrolizin-7a(5H)-yl)methoxy)-6-(trifluoromethyl)quinazolin-7-yl)-7-fluorobenzo[b]thiophene-3-carbonitrile] | 0.1 to 1 µM | < 0.1 µM | 0.1 to 1 µM | 0.1 to 1 µM | 0.1 to 1 µM | < 0.1 µM |
| CCN(c1nc(OC[C@@]23CCCN2C[C@H](F)C3)nc2c(F)c(-c3ccc(F)c4sc(N)c(C#N)c34)c(C(F)(F)F)cc12)[C@H]1CCN(C(=O)N2CC3C(C2)C3(C)C)C1 (stereo partly drawn) [Compound 817] | 0.1 to 1 µM | < 0.1 µM | 0.1 to 1 µM | 1 to 10 µM | 0.1 to 1 µM | < 0.1 µM |
| CCN(c1nc(OC[C@@]23CCCN2C[C@H](F)C3)nc2c(F)c(-c3ccc(F)c4sc(N)c(C#N)c34)c(C(F)(F)F)cc12)[C@H]1CCN(C(=O)c2ccon2)[C@@H]1C [Compound 838] | 0.1 to 1 µM | < 0.1 µM | 0.1 to 1 µM | 0.1 to 1 µM | 0.1 to 1 µM | < 0.1 µM |
| CCN(c1nc(OC[C@@]23CCCN2C[C@H](F)C3)nc2c(F)c(-c3ccc(F)c4sc(N)c(C#N)c34)c(C(F)(F)F)cc12)[C@H]1CCN(C(=O)C2CC(OC)C2)C1 (stereo partly drawn) [Compound 844] | 0.1 to 1 µM | < 0.1 µM | 0.1 to 1 µM | 0.1 to 1 µM | 0.1 to 1 µM | < 0.1 µM |
| CCN(c1nc(OC[C@@]23CCCN2C[C@H](F)C3)nc2c(F)c(-c3ccc(F)c4sc(N)c(C#N)c34)c(C(F)(F)F)cc12)[C@H]1C[C@H](COC)N(C(=O)C2CC2(F)F)C1 (stereo partly drawn) [Compound 861] | 0.1 to 1 µM | < 0.1 µM | 0.1 to 1 µM | 0.1 to 1 µM | 0.1 to 1 µM | < 0.1 µM |
| CCN(c1nc(OC[C@@]23CCCN2C[C@H](F)C3)nc2c(F)c(-c3ccc(F)c4sc(N)c(C#N)c34)c(C(F)(F)F)cc12)[C@H]1C[C@H](COC)N(C(=O)C2C[C@@H]2F)C1 (stereo partly drawn) [Compound 870] | 0.1 to 1 µM | < 0.1 µM | 0.1 to 1 µM | 0.1 to 1 µM | 0.1 to 1 µM | < 0.1 µM |
